Values quoted from earlier work in US10927398B2, “Compositions for CYP450 phenotyping using saliva samples” (Concordia University, Inc., priority 2015, dated 2021).
Read-outs that look alike come from different tables or passages of the source.

How the values were obtained:
[1] = cited from earlier work
plasma protein = conditions: cited from earlier work
[2] = Table of Exemplary Drugs, CYP2D6
[3] = Table of Exemplary Drugs, CYP3A4
[4] = Table of Exemplary Drugs, CYP2C19
[5] = Table of Exemplary Drugs, CYP2C9

Structure (SMILES)	HALF-LIFE [1, 3] [h]	PLASMA PROTEIN BINDING (plasma protein; [3])	also measured
O=C1CCc2ccc(OCCCCN3CCN(c4cccc(Cl)c4Cl)CC3)cc2N1 [Aripiprazole]			HALF-LIFE [1, 2]: 75 h; PLASMA PROTEIN BINDING (plasma protein; [2]): >99%
C=C(c1ccc(C(=O)O)cc1)c1cc2c(cc1C)C(C)(C)CCC2(C)C [Bexarotene (Targretin), Bexarotene]	7	99%	
CC(NC(C)(C)C)C(=O)c1cccc(Cl)c1 (centres unmarked) [Bupropion]	19 to 21.3	84%	HALF-LIFE [1, 4]: 19 to 21.3 h; PLASMA PROTEIN BINDING (plasma protein; [4]): 84%
NC(=O)N1c2ccccc2C=Cc2ccccc21 [Carbamazepine (eg. Tegretol), Carbamazepine]	12 to 17	76%	
CCCC(C)(COC(N)=O)COC(=O)NC(C)C (centres unmarked) [Carisoprodol]			PLASMA PROTEIN BINDING (plasma protein; plasma): 60%
Cc1ccc(-c2cc(C(F)(F)F)nn2-c2ccc(S(N)(=O)=O)cc2)cc1 [Celecoxib]			HALF-LIFE [1, 5]: 11 h; PLASMA PROTEIN BINDING (plasma protein; [5]): 97%
CC1OC2(CS1)CN1CCC2CC1 (centres unmarked) [Cevimeline (Evoxac), Cevimeline]	4 to 6	<20%	
CN(C)CCC(c1ccc(Cl)cc1)c1ccccn1 (centres unmarked) [Chlorphenamine]			PLASMA PROTEIN BINDING (plasma protein; [2]): 72%
O=C1CN=C(c2ccccc2Cl)c2cc([N+](=O)[O-])ccc2N1 [Clonazepam (Klonopin), Clonazepam]		85%	HALF-LIFE ([1]; in vivo): 30 to 40 h
O=P1(N(CCCl)CCCl)NCCCO1 (centres unmarked) [Cyclophosphamide]			HALF-LIFE ([1]; in vivo): 3 to 12 h; PLASMA PROTEIN BINDING (plasma protein; plasma): >60%
Cc1nc(Nc2ncc(C(=O)Nc3c(C)cccc3Cl)s2)cc(N2CCN(CCO)CC2)n1 [Dasatinib (Sprycel), Dasatinib]	3 to 5	96%	
C[C@@H]1C[C@H]2[C@@H]3CCC4=CC(=O)C=C[C@]4(C)[C@@]3(F)[C@@H](O)C[C@]2(C)[C@@]1(O)C(=O)CO [Dexmethasone (Decadron), Dexmethasone]			PLASMA PROTEIN BINDING (plasma protein; plasma): 77%
CN[C@@H](C)Cc1ccccc1 [Dextromethamphetamine]			HALF-LIFE [1, 2]: 12 h
CC(=O)O[C@@]12CO[C@@H]1C[C@H](O)[C@@]1(C)C(=O)[C@H](O)C3=C(C)[C@@H](OC(=O)[C@H](O)[C@@H](NC(=O)OC(C)(C)C)c4ccccc4)C[C@@](O)([C@@H](OC(=O)c4ccccc4)[C@H]21)C3(C)C [Docetaxel (Taxotere), Docetaxel]	11.1	94-97% ^	
O=C(CCCN1CC=C(n2c(=O)[nH]c3ccccc32)CC1)c1ccc(F)cc1 [Droperidol]	2		
CN1CCN(C(=O)O[C@H]2c3nccnc3C(=O)N2c2ccc(Cl)cn2)CC1 [Eszopiclone (Lunesta), Eszopiclone]		52-59% ^	
COCCCC/C(=N\OCCN)c1ccc(C(F)(F)F)cc1 [Fluvoxamine]			HALF-LIFE ([1]; Table of Exemplary Drugs, CYP1A2): ~14 to 16 h; HALF-LIFE [1, 2]: 15.6 h
CC(C)CN(C[C@@H](OP(=O)(O)O)[C@H](Cc1ccccc1)NC(=O)O[C@H]1CCOC1)S(=O)(=O)c1ccc(N)cc1 [Fosamprenavir (Lexiva), Fosamprenavir]	7.7	90%	
COc1ccc(Cl)cc1C(=O)NCCc1ccc(S(=O)(=O)NC(=O)NC2CCCCC2)cc1 [Glibenclamide]			PLASMA PROTEIN BINDING (plasma protein; [5]): 99%

Structure (SMILES)	HALF-LIFE [1, 3] [h]	PLASMA PROTEIN BINDING (plasma protein; [3])	also measured
CN1C2CCCC1CC(NC(=O)c1nn(C)c3ccccc13)C2 (centres unmarked) [Granisetron (Kytril), Granisetron]	3 to 24	65%	
CCCCN(CCCC)CCC(O)c1cc2c(Cl)cc(Cl)cc2c2cc(C(F)(F)F)ccc12 (centres unmarked) [Halofantrine (Halfan), Halofantrine]	140 to 240	60-70% ^	
CN1C(=O)NC(=O)C(C)(C2=CCCCC2)C1=O (centres unmarked) [Hexobarbital]			PLASMA PROTEIN BINDING (plasma protein; [4]): 25%
CCC(C)n1ncn(-c2ccc(N3CCN(c4ccc(OCC5COC(Cn6cncn6)(c6ccc(Cl)cc6Cl)O5)cc4)CC3)cc2)c1=O (centres unmarked) [Itraconazole (Sporanox), Itraconazole]	35 to 64		
C/C(=C\c1csc(C)n1)[C@@H]1C[C@@H]2O[C@]2(C)CCC[C@H](C)[C@H](O)[C@@H](C)C(=O)C(C)(C)[C@@H](O)CC(=O)N1 [Ixabepilone (Ixempra), Ixabepilone]	52	67-77% ^	
CS(=O)(=O)CCNCc1ccc(-c2ccc3ncnc(Nc4ccc(OCc5cccc(F)c5)c(Cl)c4)c3c2)o1 [Lapatinib (Tykerb), Lapatinib]	24	>99%	
CC[C@H](O)C(C[C@H](C)N(C)C)(c1ccccc1)c1ccccc1 [Levomethadyl (Orlaam), Levomethadyl]		80%	HALF-LIFE ([1]; in vivo): 35 to 60 h
C=C(C)[C@H]1CC=C(C)CC1 [Limonene]			HALF-LIFE [1, 4]: 12 to 24 h
Cc1c(OCC(F)(F)F)ccnc1C[S+]([O-])c1nc2ccccc2[nH]1 (centres unmarked) [Llansoprazole]			HALF-LIFE [1, 4]: 0.9 to 1.5 h; PLASMA PROTEIN BINDING (plasma protein; [4]): 97-99% ^
Cc1cccc(C)c1OCC(=O)N[C@@H](Cc1ccccc1)[C@@H](O)C[C@H](Cc1ccccc1)NC(=O)[C@H](C(C)C)N1CCCNC1=O [Lopinavir (Kaletra), Lopinavir]	5 to 6	98-99% ^	
CC[C@H](C)C(=O)O[C@H]1C[C@@H](C)C=C2C=C[C@H](C)[C@H](CC[C@@H]3C[C@@H](O)CC(=O)O3)[C@H]21 [Lovastatin (Mevacor), Lovastatin]	2 to 5	>95%	
C[C@H]1C[C@@H]2[C@H]([C@@H](O)C[C@@]3(C)[C@H]2CC[C@]3(O)C(=O)CO)[C@@]2(C)C=CC(=O)C=C12 [Methylprednisolone]	2 to 3	78%	
CCN(CC)CCNC(=O)c1cc(Cl)c(N)cc1OC [Metoclopramide]			HALF-LIFE [1, 2]: 5 to 6 h; PLASMA PROTEIN BINDING (plasma protein; [2]): 30%
Cc1cc(-c2ccccc2)nnc1NCCN1CCOCC1 [Minaprine]			HALF-LIFE [1, 2]: 2 to 2.5 h
NC(=O)C[S+]([O-])C(c1ccccc1)c1ccccc1 (centres unmarked) [Modafinil (Provigil), Modafinil]	7.5 to 15	60%	
Cc1c(O)cccc1C(=O)N[C@@H](CSc1ccccc1)[C@H](O)CN1C[C@H]2CCCC[C@H]2C[C@H]1C(=O)NC(C)(C)C [Nelfinavir]			HALF-LIFE [1, 4]: 3.5 to 5 h; PLASMA PROTEIN BINDING (plasma protein; [4]): 98%
CC1(C)NC(=O)N(c2ccc([N+](=O)[O-])c(C(F)(F)F)c2)C1=O [Nilutamide]			HALF-LIFE [1, 4]: 38 to 59.1 h; PLASMA PROTEIN BINDING (plasma protein; [4]): 80-84% ^
CN(C)C[C@H]1CCCC[C@]1(O)c1cccc(O)c1 [O-desmethyltramadol]			HALF-LIFE [1, 2]: 9 h
CCN(CC)CC#CCOC(=O)C(O)(c1ccccc1)C1CCCCC1 (centres unmarked) [Oxybutynin (Ditropan), Oxybutynin]	7 to 30	91-93% ^	

Structure (SMILES)	HALF-LIFE [1, 3] [h]	PLASMA PROTEIN BINDING (plasma protein; [3])	also measured
Fc1ccc([C@@H]2CCNC[C@H]2COc2ccc3c(c2)OCO3)cc1 [Paroxetine]			HALF-LIFE [1, 2]: 15 to 21 h; PLASMA PROTEIN BINDING (plasma protein; [2]): 93-95% ^
C1CCC(C(CC2CCCCN2)C2CCCCC2)CC1 (centres unmarked) [Perhexiline]			HALF-LIFE [1, 2]: 12 to 18 h
O=c1[nH]c2ccccc2n1C1CCN(CCCC(c2ccc(F)cc2)c2ccc(F)cc2)CC1 [Pimozide (Orap), Pimozide]	55		
CN1C(C(=O)Nc2ccccn2)=C(O)c2ccccc2S1(=O)=O [Piroxicam]			HALF-LIFE [1, 5]: 50 h; PLASMA PROTEIN BINDING (plasma protein; [5]): 99%
C[C@]12C=CC(=O)C=C1CC[C@@H]1[C@@H]2[C@@H](O)C[C@@]2(C)[C@H]1CC[C@]2(O)C(=O)CO [Prednisolone]	2 to 4	70-90% ^	
[H]/N=C(\N/C(=N/[H])Nc1ccc(Cl)cc1)NC(C)C [Proguanil]			HALF-LIFE [1, 4]: 12 to 18 h; PLASMA PROTEIN BINDING (plasma protein; [4]): 75%
OCCOCCN1CCN(C2=Nc3ccccc3Sc3ccccc32)CC1 [Quetiapine (Seroquel), Quetiapine]	6 to 7	83%	
CCN(CC)CCCC(C)Nc1c2ccc(Cl)cc2nc2ccc(OC)cc12 (centres unmarked) [Quinacrine]	120	80-90% ^	
Cc1nc2n(c(=O)c1CCN1CCC(c3noc4cc(F)ccc34)CC1)CCCC2 [Risperidone]			HALF-LIFE [1, 2]: 3 to 20 h
CC(C)c1nc(CN(C)C(=O)N[C@H](C(=O)N[C@@H](Cc2ccccc2)C[C@H](O)[C@H](Cc2ccccc2)NC(=O)OCc2cncs2)C(C)C)cs1 [Ritonavir (Norvir), Ritonavir]	3 to 5		
CN(CCOc1ccc(CC2SC(=O)NC2=O)cc1)c1ccccn1 (centres unmarked) [Rosiglitazone]			HALF-LIFE [1, 5]: 3 to 4 h
CC(C)(C)NC(=O)[C@@H]1C[C@@H]2CCCC[C@@H]2CN1C[C@@H](O)[C@H](Cc1ccccc1)NC(=O)[C@H](CC(N)=O)NC(=O)c1ccc2ccccc2n1 [Saquinavir (Invirase), Saquinavir]	13	98%	
CCCc1nn(C)c2c(=O)[nH]c(-c3cc(S(=O)(=O)N4CCN(C)CC4)ccc3OCC)nc12 [Sildenafil]		96%	HALF-LIFE [1, 5]: 4 h; PLASMA PROTEIN BINDING (plasma protein; [5]): 96%
CCN(CC)CCNC(=O)c1c(C)[nH]c(/C=C2\C(=O)Nc3ccc(F)cc32)c1C [Sunitinib (Sutent), Sunitinib]	40 to 60	95%	
CSc1ccc2c(c1)N(CCC1CCCCN1C)c1ccccc1S2 (centres unmarked) [Thioridazine]			HALF-LIFE [1, 2]: 21 to 24 h
CCCCNC(=O)NS(=O)(=O)c1ccc(C)cc1 [Tolbutamide]			HALF-LIFE [1, 5]: 4.5 to 6.5 h
CC[C@]1(O)C[C@H]2CN(CCc3c([nH]c4ccccc34)[C@@](C(=O)OC)(c3cc4c(cc3OC)N(C=O)[C@H]3[C@@](O)(C(=O)OC)[C@H](OC(C)=O)[C@]5(CC)C=CCN6CC[C@]43[C@@H]65)C2)C1 [Vincristine (Oncovin), Vincristine]	85		
Cc1ccc(-c2nc3ccc(C)cn3c2CC(=O)N(C)C)cc1 [Zolpidem (Ambien), Zolpidem]			HALF-LIFE ([1]; in vivo): 2.5 to 2.8 h
NS(=O)(=O)Cc1noc2ccccc12 [Zonisamide (Zonegran), Zonisamide]		40-60% ^	
